“And” between values parts separate entries of the source, which are not always exact repeats. Equal values may be shown once.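 Protocol summary: plate cells (96-well), add compound at 5 concentrations, incubate 48 h, interpolate endpoints linearly. The concentration for 50% growth inhibition is given as GI50. At the TGI there is no net growth.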
How the values were obtained:
Assay in all cases: NCI-60 cell line screen, 48 h
[1] = system: SF-295 CNS
[2] = system: MDA-MB-231 breast
[3] = system: ACHN renal
[4] = system: MDA-MB-435
[5] = system: SK-MEL-28 melanoma
[6] = system: LOX IMVI melanoma
[7] = system: CCRF-CEM leukemia
[8] = system: EKVX NSCLC
[9] = system: HL-60(TB) leukemia
[10] = system: SF-268 CNS

Compound	GI50 [1] [µM]	TGI [1] [µM]	GI50 [2] [µM]	TGI [2] [µM]	GI50 [3] [µM]	TGI [3] [µM]	GI50 [4] [µM]	TGI [4] [µM]	GI50 [5] [µM]	TGI [5] [µM]	GI50 [6] [µM]	TGI [6]	GI50 [7] [µM]	TGI [7]	GI50 [8] [µM]	TGI [8] [µM]	TGI [9]	TGI [10] [µM]	GI50 [9] [µM]	GI50 [10] [µM]
O=C(CCN1CCCC1)Nc1ccc2c(NCCCc3ccccc3)c3ccccc3nc2c1	1.31	2.59	1.02	2.3	1.42	2.8	1.46	2.82	1.77	3.25	0.739	2.04 µM	0.562	3.03 µM	1.21	2.56	–	–	–	–
CCN1/C(=C/C(C)=C/c2sc3ccccc3[n+]2CC)Sc2ccccc21	–	0.491	–	–	–	3.13	–	–	–	1.22	–	–	–	0.166 µM	–	1.4	4.78 µM	1.76	–	–
N#Cc1c(-c2ccc(Cl)cc2)c(C#N)c(=O)n(NS(=O)(=O)c2ccccc2)c1-c1ccccc1	–	> 25	–	> 25	–	> 25	–	> 25	–	> 25	–	> 25 µM	–	> 25 µM	–	–	> 25 µM	–	–	–
Cc1cc2c(-c3ccccc3)cc(=O)[nH]c2cc1N	–	> 100	–	> 100	–	> 100	–	> 100	–	> 100	–	> 100 µM	–	> 100 µM	–	> 100	–	–	–	–
C=C1C(=O)OC2/C=C(\C)C(O)/C=C\C(C)(O)CC(OC(=O)/C(C)=C/C)C12 (stereo unspecified)	–	> 100	–	–	–	54.1	–	–	–	35.4	–	36.6 µM	–	> 61.7 µM	–	77.9	> 64 µM	> 100	–	–
N#Cc1c(C#N)c(SSc2c(C#N)c(C#N)c(N)n2-c2ccccc2)n(-c2ccccc2)c1N	–	> 58.6	–	> 69.6	–	21.4	–	29.2	–	40.9	–	> 100 µM	–	–	–	59.5	–	> 72	–	–
COc1cc2c(cc1OC)CCN=C2	–	> 100	–	> 100	–	–	–	> 100	–	> 100	–	> 100 µM	–	> 100 µM	–	–	> 100 µM	–	–	–
COC(=O)C1=C(O)C(C(=O)OC)[C@]2(O)[C@H](C(=O)OC)[C@H]1C[C@@H](c1ccc(OC)cc1)[C@H]2C(=O)OC (stereo partly specified)	–	> 100	–	75.3	–	37.6	–	29	–	> 100	–	78.5 µM	–	–	–	> 100	–	> 100	–	–
Cc1n[nH]c(=O)n1N=C(c1ccccc1)c1ccccc1	–	> 100	–	> 100	–	> 100	–	> 100	–	> 100	–	> 100 µM	–	> 100 µM	–	> 100	–	> 100	–	–
CC(=O)Oc1c(OC(C)=O)c(-c2ccc(O)c(O)c2)c(O)c(O)c1-c1ccc(O)cc1	–	> 100	–	–	–	–	–	–	–	> 100	–	94 µM and 95.9 µM	24.5	67.8 µM and > 100 µM	–	> 100	52.6 µM and > 100 µM	> 100	19	80.6
C/C(=N\Nc1ccc([N+](=O)[O-])cc1)C(=O)N(C)Nc1ccccc1	–	> 100	–	–	–	> 100	–	–	–	–	–	> 100 µM	–	> 100 µM	–	> 100	> 100 µM	–	–	–
S=C1C=C(c2ccccc2)Sc2ccccc2N1	–	> 100	–	> 100	–	> 100	–	–	–	> 100	–	> 100 µM	–	> 100 µM	–	> 100	> 100 µM	> 100	–	–
CCOC(=O)c1c(SCCO)n(-c2ccccc2)c(=S)n(-c2ccccc2)c1=O	–	> 100	–	–	–	> 100	–	> 100	–	> 100	–	> 100 µM	–	> 100 µM	–	> 100	> 100 µM	> 100	–	–
CCCCCCCCCN1CCC(=O)C(C(=O)OC)C1 (stereo unspecified)	–	31.9	–	–	–	21	–	28.5	–	–	–	26.1 µM	–	31.2 µM	–	34	10.9 µM	30.2	–	–
COc1ccc(C)cc1NC(=S)N/N=C/c1ccc(SC)cc1	–	> 100	–	–	–	> 100	–	> 100	–	> 100	–	> 100 µM	–	> 100 µM	–	–	> 100 µM	> 100	–	–
O=c1c([Se]c2coc3ccccc3c2=O)coc2ccccc12	–	13.7	–	–	–	32.1	–	–	–	30.8	–	29.5 µM	–	> 100 µM	–	33.6	> 100 µM	33.8	–	–
C[C@@H]1C(O)CC[C@H](C)C12CC=CC2=O (stereo partly specified)	–	> 100	–	> 100	–	> 100	–	> 100	–	> 100	–	> 100 µM	–	–	–	> 100	> 100 µM	> 100	–	–

From PubChem BioAssay (NCI)
